System: P12-Ichikawa
Assay: cell viability relative to DMSO control; higher = less cytotoxic
Conditions: 48 h
How it was run: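 Library compounds in DMSO were pin-dosed in an 11-point threefold series (47 μM to 0.79 nM) onto leukemia cells in 1536-well plates (5 μl). Plates held 500 cells/well of NOMO1 or SEM or 1000 cells/well of P12-Ichikawa, each adapted for at least four passages in each medium. Luminescence was read with CellTiter-Glo One after 48 h at 37°C. Viability means the per-plate percentage relative to DMSO wells, using cell-free wells as background.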

[1] = HPLM + 10% dialyzed FBS, 0.000781 µM
[2] = HPLM + 10% dialyzed FBS, 0.00234 µM
[3] = HPLM + 10% dialyzed FBS, 0.00702 µM
[4] = HPLM + 10% dialyzed FBS, 0.0211 µM
[5] = HPLM + 10% dialyzed FBS, 0.0632 µM
[6] = HPLM + 10% dialyzed FBS, 0.19 µM
[7] = HPLM + 10% dialyzed FBS, 0.569 µM
[8] = HPLM + 10% dialyzed FBS, 1.71 µM
[9] = HPLM + 10% dialyzed FBS, 5.12 µM
[10] = HPLM + 10% dialyzed FBS, 15.4 µM
[11] = HPLM + 10% dialyzed FBS, 46.1 µM
[12] = RPMI 5 mM glucose + 10% FBS, 0.000781 µM
[13] = RPMI 5 mM glucose + 10% FBS, 0.00234 µM
[14] = RPMI 5 mM glucose + 10% FBS, 0.00702 µM
[15] = RPMI 5 mM glucose + 10% FBS, 0.0211 µM
[16] = RPMI 5 mM glucose + 10% FBS, 0.0632 µM
[17] = RPMI 5 mM glucose + 10% FBS, 0.19 µM
[18] = RPMI 5 mM glucose + 10% FBS, 0.569 µM
[19] = RPMI 5 mM glucose + 10% FBS, 1.71 µM
[20] = RPMI 5 mM glucose + 10% FBS, 5.12 µM
[21] = RPMI 5 mM glucose + 10% FBS, 15.4 µM
[22] = RPMI 5 mM glucose + 10% FBS, 46.1 µM
[23] = RPMI 5 mM glucose + 10% dialyzed FBS, 0.000781 µM
[24] = RPMI 5 mM glucose + 10% dialyzed FBS, 0.00234 µM
[25] = RPMI 5 mM glucose + 10% dialyzed FBS, 0.00702 µM
[26] = RPMI 5 mM glucose + 10% dialyzed FBS, 0.0211 µM
[27] = RPMI 5 mM glucose + 10% dialyzed FBS, 0.0632 µM
[28] = RPMI 5 mM glucose + 10% dialyzed FBS, 0.19 µM
[29] = RPMI 5 mM glucose + 10% dialyzed FBS, 0.569 µM
[30] = RPMI 5 mM glucose + 10% dialyzed FBS, 1.71 µM
[31] = RPMI 5 mM glucose + 10% dialyzed FBS, 5.12 µM
[32] = RPMI 5 mM glucose + 10% dialyzed FBS, 15.4 µM
[33] = RPMI 5 mM glucose + 10% dialyzed FBS, 46.1 µM

SMILES | cell viability [1] [%] | cell viability [2] [%] | cell viability [3] [%] | cell viability [4] [%] | cell viability [5] [%] | cell viability [6] [%] | cell viability [7] [%] | cell viability [8] [%] | cell viability [9] [%] | cell viability [10] [%] | cell viability [11] [%] | cell viability [12] [%] | cell viability [13] [%] | cell viability [14] [%] | cell viability [15] [%] | cell viability [16] [%] | cell viability [17] [%] | cell viability [18] [%] | cell viability [19] [%] | cell viability [20] [%] | cell viability [21] [%] | cell viability [22] [%] | cell viability [23] [%] | cell viability [24] [%] | cell viability [25] [%] | cell viability [26] [%] | cell viability [27] [%] | cell viability [28] [%] | cell viability [29] [%] | cell viability [30] [%] | cell viability [31] [%] | cell viability [32] [%] | cell viability [33] [%]
CC(NCCc1ccc(O)cc1)C(O)c1ccc(O)cc1 (centres undefined) | 106 | 109 | 116 | 113 | 117 | 112 | 111 | 103 | 109 | 106 | 100 | 114 | 120 | 122 | 115 | 110 | 114 | 125 | 116 | 120 | 99 | 111 | 107 | 105 | 113 | 109 | 115 | 111 | 107 | 105 | 102 | 97 | 90.6
CC(C)OC1=CC=C2C(=C1)O\C=C(/C2=O)C3=CC=CC=C3 | 118 | 126 | 122 | 128 | 120 | 119 | 124 | 117 | 113 | 118 | 112 | 123 | 118 | 127 | 128 | 131 | 122 | 121 | 123 | 115 | 110 | 113 | 127 | 121 | 122 | 116 | 132 | 110 | 122 | 115 | 119 | 92.4 | 110
CC/1=C(/N2[C@H](SC1)[C@H](NC(=O)C(N)C3=CC=CC=C3)C2=O)C(O)=O (some centres undefined) | 119 | 122 | 129 | 133 | 136 | 135 | 133 | 136 | 144 | 136 | 138 | – | – | – | – | – | – | – | – | – | – | – | – | – | – | – | – | – | – | – | – | – | –
C[C@]12CC[C@H]3[C@@H](CCC/4=C/C(=O)CC[C@]34C)[C@@H]1CC[C@@H]2OC(=O)CCC5CCCC5 | 93.1 | 100 | 104 | 113 | 98.8 | 101 | 106 | 110 | 104 | 111 | 114 | 83.1 | 84.3 | 101 | 107 | 115 | 104 | 107 | 108 | 110 | 101 | 99.9 | 90.8 | 93.5 | 99.8 | 102 | 100 | 104 | 104 | 98.9 | 104 | 110 | 96.7
COC1=CC=C(C=C1O)C/2=C/C(=O)C3=C(O2)C=C(O[C@@H]4O[C@H](CO[C@@H]5O[C@@H](C)[C@H](O)[C@@H](O)[C@H]5O)[C@@H](O)[C@H](O)[C@H]4O)C=C3O | 108 | 112 | 121 | 121 | 115 | 116 | 118 | 118 | 116 | 123 | 122 | 113 | 113 | 118 | 119 | 137 | 116 | 126 | 115 | 123 | 113 | 131 | 116 | 117 | 117 | 125 | 122 | 125 | 126 | 130 | 118 | 121 | 127
CO/N=C(\C(=O)N[C@@H]1C(=O)N2C(C(=O)OCOC(=O)C(C)(C)C)=C(/C=C\c3scnc3C)CS[C@H]12)c1csc(N)n1 | 91.7 | 102 | 105 | 104 | 108 | 110 | 106 | 106 | 110 | 89.8 | 72.4 | 85.6 | 91.6 | 101 | 99.6 | 101 | 103 | 96.4 | 103 | 103 | 75.8 | 60.1 | 92 | 89.6 | 102 | 91.8 | 104 | 106 | 99.2 | 98.7 | 102 | 80.9 | 57.2
O=c1[nH]c(=O)n(C2CCCO2)cc1F (centres undefined) | 122 | 124 | 126 | 125 | 125 | 124 | 123 | 123 | 112 | 110 | 116 | – | – | – | – | – | – | – | – | – | – | – | 88.6 | 126 | 120 | 128 | 130 | 120 | 122 | 121 | 119 | 108 | 115
COC1=CC=C2/C3=N/CCN3\C(=N/C2=C1OC)NC(=O)C4=CC=CN=C4 | 113 | 124 | 110 | 117 | 129 | 118 | 113 | 123 | 108 | 92.6 | 89.7 | 108 | 110 | 115 | 108 | 114 | 115 | 104 | 102 | 78.8 | 73.4 | 58 | 111 | 120 | 115 | 119 | 115 | 117 | 111 | 105 | 97.3 | 86.1 | 65.9
COc1cccc2c1CCCC2CCCN1CCN(C2CCCCC2)CC1 (centres undefined) | 104 | 110 | 97.7 | 112 | 106 | 113 | 111 | 110 | 109 | 103 | 81.5 | 111 | 99.9 | 117 | 114 | 127 | 119 | 116 | 122 | 114 | 99.5 | 62.9 | 95.7 | 102 | 114 | 111 | 116 | 110 | 111 | 103 | 105 | 93.4 | 66.2
OC(CN1CCN(c2cccc(Cl)c2)CC1)C(c1ccccc1)c1ccccc1 (centres undefined) | 109 | 114 | 119 | 111 | 120 | 23.4 | 17.3 | 4.64 | 4.77 | 4.92 | 5.05 | 112 | 117 | 114 | 115 | 123 | 126 | 114 | 7.71 | 6.13 | 5.76 | 5.28 | 102 | 112 | 111 | 112 | 118 | 105 | 84.9 | 4.96 | 5.14 | 4.91 | 4.74
CCOC(=O)Nc1ccc(NCc2ccc(F)cc2)nc1N | 114 | 114 | 110 | 113 | 120 | 117 | 109 | 105 | 96.5 | 94.6 | 107 | 107 | 116 | 116 | 125 | 118 | 111 | 110 | 102 | 91 | 108 | 99.8 | 115 | 101 | 101 | 104 | 111 | 111 | 112 | 103 | 104 | 101 | 100
CCOC1=CC=CC=C1N\2C(=O)C3=C(C=CC=C3)\N=C2C(C)N4CCN(CC4)C(=O)COC5=CC=C(Cl)C=C5 (centres undefined) | 121 | 120 | 116 | 115 | 107 | 111 | 72.3 | 15.9 | 8.63 | 6.31 | 4.74 | 121 | 126 | 119 | 110 | 117 | 111 | 94.4 | 51.8 | 9.87 | 5.31 | 4.69 | – | – | – | – | – | – | – | – | – | – | –
NC/1=N/C(=O)N(/C=N1)[C@@H]2O[C@H](CO)[C@@H](O)[C@H]2O | 108 | 104 | 102 | 107 | 85.2 | 114 | 104 | 109 | 77 | 55.1 | 22.6 | 107 | 102 | 102 | 98.7 | 88.1 | 113 | 104 | 107 | 91.1 | 59 | 43.2 | 97.1 | 107 | 114 | 116 | 94.7 | 103 | 105 | 104 | 89.6 | 56 | 26.8
C[C@H]1COC/2=C1/C(=O)C(=O)C3=C4CCCC(C)(C)C4=CC=C23 | 112 | 118 | 121 | 129 | 127 | 134 | 137 | 124 | 129 | 118 | 94 | – | – | – | – | – | – | – | – | – | – | – | – | – | – | – | – | – | – | – | – | – | –
NC(=O)NO | 85.4 | 102 | 100 | 100 | 94.3 | 99.6 | 102 | 104 | 72.4 | 28.8 | 2.02 | 83.7 | 103 | 91.4 | 90.8 | 98.7 | 98.5 | 91.2 | 90.9 | 77.1 | 43.6 | 0.136 | 88.4 | 88.3 | 87.7 | 91.4 | 92.2 | 96 | 94.1 | 87.2 | 65.2 | 22.9 | 2.61
